Data from patent US12252481B2, “Anti-viral compounds” (Aligos Therapeutics, Inc., priority 2021, dated 2025).

Key:
SARS-Cov-2 3CLpro = target: T1, SARS-Cov-2 3CLpro (Severe acute respiratory syndrome coronavirus 2, UniProt P0DTD1); assay: biochemical; conditions: 3CLpro, 30 mins preincubation, SAMDI-MS; read-out: SARS-Cov-2 IC50 (class)
T1 construct: 3CLpro and HRV3C was added using a Multidrop Combi

[1] = test system: human beta-coronavirus OC43; assay: OC43 coronavirus antiviral assay in HeLa cells (cytopathic effect, cell-titer-glo); type: cell-based; conditions: Betacoronavirus 1, OC43, HeLa, 144 h, 6 days at 33° C., read-out: EC50 (class)
[2] = test system: B.1.1.7 lineage SARS-CoV-2; assay: microbe, parasite or virus in culture; type: cell-based; conditions: Severe acute respiratory syndrome coronavirus 2, 96 h; read-out: A549-dual_ACE2_TMPRSS2 (EC50)
HRV3C = target: T2, HRV3C (Human rhinovirus 14, UniProt P03303); assay: biochemical; parameters: species or system HRV; conditions: HRV3C, 30 mins preincubation, SAMDI-MS; read-out: HRV IC50 (bound)
T2 construct: 3CLpro and HRV3C was added using a Multidrop Combi
T2 sequence (P03303 1538-1719): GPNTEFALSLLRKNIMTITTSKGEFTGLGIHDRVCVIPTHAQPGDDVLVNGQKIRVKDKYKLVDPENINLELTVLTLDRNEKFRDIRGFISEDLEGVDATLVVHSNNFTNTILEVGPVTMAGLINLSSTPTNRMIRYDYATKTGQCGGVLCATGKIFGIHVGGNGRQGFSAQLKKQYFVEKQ

SMILES	IC50 (SARS-Cov-2 3CLpro) [µM]	EC50 [1] [µM]	EC50 [2] [µM]	IC50 (HRV3C) [µM]
COC1(C(=O)N[C@H](C(=O)N2C[C@H]3[C@@H]([C@H]2C(=O)N[C@H](C#N)C[C@@H]2CCNC2=O)[C@H]2C=C[C@@H]3C2)C(C)(C)C)CC1 [Compound 126]	0.02 to 0.2	0.1 to 1	0.1 to 1	> 0.5
CC(C)(C)[C@H](NC(=O)C(F)(F)C(F)(F)F)C(=O)N1C[C@H]2[C@@H]([C@H]1C(=O)N[C@H](C#N)CC1CC3(COC3)NC1=O)[C@H]1C=C[C@@H]2C1 (stereo partly drawn) [Compound 107, (1R,2S,3S,6R,7S)—N-[(1S)-1-cyano-2-{6-oxo-2-oxa-5-azaspiro[3.4]octan-7-yl}ethyl]-4-[(2S)-3,3-dimethyl-2-(2,2,3,3,3-pentafluoropropanamido)butanoyl]-4-azatricyclo[5.2.1.0^{2,6}]dec-8-ene-3-carboxamide]	< 0.02	< 0.1	< 0.1	> 0.5
CC(C)(C)[C@H](NC(=O)C(F)(F)F)C(=O)N1C[C@@H]2[C@@H]3C=C[C@@H]([C@H]4C[C@@H]34)[C@@H]2C1C(=O)N[C@H](C#N)C[C@@H]1CCNC1=O (stereo partly drawn) [Example 88, (3aR,4R,4aR,5aS,6S,6aS)-N-((S)-1-cyano-2-((S)-2-oxopyrrolidin-3-yl)ethyl)-2-((S)-3,3-dimethyl-2-(2,2,2-trifluoroacetamido)butanoyl)-1,2,3,3a,4,4a,5,5a,6,6a-decahydro-4,6-ethenocyclopropa[f]isoindole-1-carboxamide]	< 0.02	0.1 to 1	0.1 to 1	> 10
CC1(C)NC(=O)[C@H](C[C@@H](C#N)NC(=O)[C@@H]2[C@@H]3[C@H](CN2C(=O)[C@@H](NC(=O)C(F)(F)F)C(C)(C)C)[C@@H]2C=C[C@H]3C2)O1 [Compound 105, (1S,3aR,4S,7R,7aS)-N-((S)-1-cyano-2-((S)-2,2-dimethyl-4-oxooxazolidin-5-yl)ethyl)-2-((S)-3,3-dimethyl-2-(2,2,2-trifluoroacetamido)butanoyl)-2,3,3a,4,7,7a-hexahydro-1H-4,7-methanoisoindole-1-carboxamide]	0.02 to 0.2	0.1 to 1	< 0.1	> 0.5
CC(C)(C)[C@H](NC(=O)C(F)(F)C(F)(F)F)C(=O)N1C[C@@H]2[C@H]3C[C@@H]([C@@H]2[C@H]1C(=O)N[C@H](C#N)C[C@@H]1OCCNC1=O)[C@H](F)C3 [Compound 118, (1S,2R,3S,6R,7S,9R)—N-[(1S)-1-cyano-2-[(2S)-3-oxomorpholin-2-yl]ethyl]-4-[(2S)-3,3-dimethyl-2-(2,2,3,3,3-pentafluoropropanamido)butanoyl]-9-fluoro-4-azatricyclo[5.2.1.0^{2,6}]decane-3-carboxamide]	< 0.02	< 0.1	< 0.1	> 0.5
CC(C)(C)[C@H](NC(=O)C(F)(F)F)C(=O)N1C[C@H]2[C@@H]([C@H]1C(=O)N[C@H](C#N)C[C@@H]1OCC3(CC3)NC1=O)[C@H]1C=C[C@@H]2C1 [Compound 120]	< 0.02	< 0.1	< 0.1	> 0.5
CC(C)(C)[C@H](NC(=O)C(F)(F)F)C(=O)N1C[C@H]2[C@@H]([C@H]1C(=O)N[C@H](C#N)CC1C[C@H](C(F)(F)F)NC1=O)[C@H]1C=C[C@@H]2C1 (stereo partly drawn) [Compound 108, (1R,2S,3S,6R,7S)—N-[(1S)-1-cyano-2-[(5R)-2-oxo-5-(trifluoromethyl)pyrrolidin-3-yl]ethyl]-4-[(2S)-3,3-dimethyl-2-(2,2,2-trifluoroacetamido)butanoyl]-4-azatricyclo[5.2.1.0^{2,6}]dec-8-ene-3-carboxamide]	< 0.02	< 0.1	< 0.1	> 0.5
N#C[C@H](C[C@@H]1CCNC1=O)NC(=O)[C@@H]1[C@@H]2[C@H](CN1C(=O)[C@H](CC1CCC1)NC(=O)C(F)(F)F)[C@@H]1C=C[C@H]2C1 [Example 95]	< 0.02	< 0.1	< 0.1	> 10
C[C@@H](OC1CC1)[C@H](NC(=O)C(F)(F)C(F)(F)F)C(=O)N1C[C@H]2[C@@H]([C@H]1C(=O)N[C@H](C#N)C[C@@H]1CCNC1=O)[C@H]1C=C[C@@H]2C1 [Compound 101, (1S,3aR,4S,7R,7aS)-N-((S)-1-cyano-2-((S)-2-oxopyrrolidin-3-yl)ethyl)-2-(O-cyclopropyl-N-(2,2,3,3,3-pentafluoropropanoyl)-L-threonyl)-2,3,3a,4,7,7a-hexahydro-1H-4,7-methanoisoindole-1-carboxamide]	< 0.02	< 0.1	< 0.1	> 0.5
CC(C)(C)[C@H](NC(=O)C(F)(F)F)C(=O)N1C[C@H]2[C@@H]([C@H]1C(=O)N[C@H](C#N)C[C@@H]1CCNC1=O)[C@H]1C=C[C@@H]2C1O (mixture of isomers) [Example 90, (1R,2R,3S,6S,7S)—N-[(1S)-1-cyano-2-[(3S)-2-oxopyrrolidin-3-yl]ethyl]-4-[(2S)-3,3-dimethyl-2-(2,2,2-trifluoroacetamido)butanoyl]-10-hydroxy-4-azatricyclo[5.2.1.0^{2,6}]dec-8-ene-3-carboxamide]	0.02 to 0.2	–	1 to 10	> 10
CC(C)(C)[C@H](NC(=O)C(F)(F)F)C(=O)N1C[C@H]2[C@@H]([C@H]1C(=O)N[C@H](C#N)C[C@@H]1OCCCNC1=O)[C@H]1C=C[C@@H]2C1 [Compound 121, (1R,2S,3S,6R,7S)—N-[(1S)-1-cyano-2-[(2S)-3-oxo-1,4-oxazepan-2-yl]ethyl]-4-[(2S)-3,3-dimethyl-2-(2,2,2-trifluoroacetamido)butanoyl]-4-azatricyclo[5.2.1.0^{2,6}]dec-8-ene-3-carboxamide]	< 0.02	< 0.1	< 0.1	> 0.5
CC(C)(C)[C@H](NC(=O)C(F)(F)F)C(=O)N1C[C@H]2[C@@H]([C@H]1C(=O)N[C@H](C#N)C[C@@H]1Oc3cccnc3NC1=O)[C@H]1C=C[C@@H]2C1 [Compound 112, (1S,3aR,4S,7R,7aS)-N-((S)-1-cyano-2-((S)-3-oxo-3,4-dihydro-2H-pyrido[3,2-b][1,4]oxazin-2-yl)ethyl)-2-((S)-3,3-dimethyl-2-(2,2,2-trifluoroacetamido)butanoyl)-2,3,3a,4,7,7a-hexahydro-1H-4,7-methanoisoindole-1-carboxamide]	< 0.02	0.1 to 1	< 0.1	> 0.5
CC(C)(C)[C@H](NC(=O)C(F)(F)F)C(=O)N1C[C@@H]2[C@H]3C[C@H](C[C@@H]3F)[C@@H]2[C@H]1C(=O)N[C@H](C#N)C[C@@H]1OCCNC1=O [Compound 119]	0.02 to 0.2	0.1 to 1	0.1 to 1	> 0.5
CC(C)(C)[C@H](NC(=O)C(F)(F)Cl)C(=O)N1C[C@H]2[C@@H]([C@H]1C(=O)N[C@H](C#N)C[C@@H]1OCCNC1=O)[C@H]1C=C[C@@H]2C1 [Compound 116]	< 0.02	< 0.1	< 0.1	> 0.5
COC1(C(=O)N[C@H](C(=O)N2C[C@H]3[C@@H]([C@H]2C(=O)N[C@H](C#N)C[C@@H]2CCNC2=O)[C@H]2C=C[C@@H]3C2)C(C)(C)C)CCC1 [Compound 127]	0.02 to 0.2	0.1 to 1	< 0.1	> 0.5
CC(C)(C)[C@H](NC(=O)C(F)(F)C(F)(F)F)C(=O)N1C[C@H]2[C@@H]([C@H]1C(=O)N[C@H](C#N)C[C@@H]1OCCNC1=O)[C@H]1C=C[C@@H]2C1 [Compound 115, (1S,3aR,4S,7R,7aS)-N-((S)-1-cyano-2-((S)-3-oxomorpholin-2-yl)ethyl)-2-((S)-3,3-dimethyl-2-(2,2,3,3,3 pentafluoropropanamido)butanoyl)-2,3,3a,4,7,7a-hexahydro-1H-4,7-methanoisoindole-1-carboxamide]	< 0.02	< 0.1	< 0.1	> 0.5
CC(C)(C)[C@H](NC(=O)C(F)(F)F)C(=O)N1C[C@H]2[C@@H]([C@H]1C(=O)N[C@H](C#N)C[C@@H]1CCNC1=O)[C@H]1CC[C@@H]2C1(F)F [Example 92, (1S,3aS,4S,7R,7aR)—N-((S)-1-cyano-2-((S)-2-oxopyrrolidin-3-yl)ethyl)-2-((S)-3,3-dimethyl-2-(2,2,2-trifluoroacetamido)butanoyl)-8,8-difluorooctahydro-1H-4,7-methanoisoindole-1-carboxamide]	0.02 to 0.2	0.1 to 1	0.1 to 1	> 0.5
CC(C)(C)[C@H](NC(=O)CC(F)(F)F)C(=O)N1C[C@H]2[C@@H]([C@H]1C(=O)N[C@H](C#N)C[C@@H]1Oc3ccncc3NC1=O)[C@H]1C=C[C@@H]2C1 [Compound 110, (1S,3aR,4S,7R,7aS)-N-((S)-1-cyano-2-((S)-3-oxo-3,4-dihydro-2H-pyrido[4,3-b][1,4]oxazin-2-yl)ethyl)-2-((S)-3,3-dimethyl-2-(3,3,3-trifluoropropanamido)butanoyl)-2,3,3a,4,7,7a-hexahydro-1H-4,7-methanoisoindole-1-carboxamide]	< 0.02	< 0.1	< 0.1	> 0.5
CC(C)(OCC1CC1)[C@H](NC(=O)C(F)(F)C(F)(F)F)C(=O)N1C[C@H]2[C@@H]([C@H]1C(=O)N[C@H](C#N)C[C@@H]1CCNC1=O)[C@H]1C=C[C@@H]2C1 [Compound 103]	< 0.02	< 0.1	< 0.1	> 0.5
[2H]C([2H])([2H])C([C@H](NC(=O)C(F)(F)F)C(=O)N1C[C@H]2[C@@H]([C@H]1C(=O)N[C@H](C#N)C[C@@H]1CCNC1=O)[C@H]1C=C[C@@H]2C1)(C([2H])([2H])[2H])C([2H])([2H])[2H] [Compound 124]	< 0.02	–	–	> 0.5
